This note sets out measurements from patent publication US4405627A, “Diphenylpropylamino-pyridine compounds useful as medicines” (Italiana Schoum S.p.A., priority 1979, dated 1983).

By LD50 is commonly meant the dose at which mortality reaches 50%. As usually defined, the solubility is how much of the substance goes into solution per volume.

The test system of data set [1] is rabbit ileum. In words: Spontaneous motility in vitro of rabbit ileum. Details: species or system rabbit (New Zealand male). The settings on record: Oryctolagus cuniculus; 50% reduction of amplitude of the basal contraction; Tyrode, 37° C.; read-out: CI50 (the source's name). As for the experimental part:
The spontaneous motility of the preparations was measured by a isotonic transducer connected with a microdynamometer. Each preparation was previously left dipped for about one hour in the solution up to reach the osmotic equilibrium.
After this time the single compounds were poured in the bath in gradual doses up to notice the quite total disappearance of spontaneous activity in the organ. For sake of comparison parallel tests with papaverine were carried out.

The subject of data set [2] is rabbit ileum. The experiment in a line: BaCl2-induced contraction on isolated rabbit ileum. The settings on record: Oryctolagus cuniculus; 50% reduction of the BaCl2-induced contraction; BaCl2 50 mcg/ml; read-out: CI50 (the source's name). An excerpt:
The activity of same compounds in antagonizing the spasm as caused by BaCl2 introduced in the bath at a concentration of 50 mcg/ml one minute before each test was studied. Also for this preparation a comparison with papaverine was at last carried out.

Data set [3] deals with guinea pig ileum. The experiment in a line: Acetylcholine-induced contraction on guinea pig ileum in vitro. Details: species or system guinea pig (Whitish female). The settings on record: for IC50: Cavia porcellus, acetylcholine 0.1 mcg/ml, Tyrode, 37° C., 3 minutes before spasmogen, read-out: CI50 (the source's name); for acetylcholine-induced contraction on guinea pig ileum: result in words. As for the experimental part: (§1) On the guinea pig ileum, which has a minimum intrinsic motility but a remarkable sensibility to agents causing a contracture or a relaxation of the intestinal smooth muscular system, it was possible to further evaluate the spasmolytic activity of the examined substances. As spasmogenic agents acetylcholine and BaCl2 were used which were respectively added to the bath at final concentrations of 0.1 mcg/ml and 50 mcg/ml.
(§2) Ten preparations of guinea pig ileum for each compound were prepared, yet maintaining the same dose range which was used on rabbit ileum.
(§3) The contractions were measured by means of an isotonic transducer connected with a microdynamometer. Each preparation was left dipped for about 30 minutes up to reach the equilibrium.
(§4) After this time, the single doses of each substance to be examined were introduced three minutes before the spasmogenic substance which was contacted with the preparation for 1 minute. Before the subsequent dose of drug was introduced, the tested organ was allowed to recover the basal conditions and this was ascertained by using the only spasmogenic substance. The process was repeated for all the other concentrations. Afterwards the comparison with the reference spasmolytic substance having a known activity, namely papaverine, was carried out yet working in the same conditions and according to the same procedure.

Data set [4] relates to guinea pig ileum. In words: BaCl2-induced contraction on guinea pig ileum in vitro. Further details: species or system guinea pig (Whitish female). As to conditions: for IC50: Cavia porcellus, BaCl2 50 mcg/ml, Tyrode, 37° C., 3 minutes before spasmogen, read-out: CI50 (the source's name); for BaCl2-induced contraction on guinea pig ileum: result in words. As for the experimental part:
as §1, §2, §3, §4

The next data set relates to small intestine. In words: Effect on the intestinal progress of opaque meal in rat. The format is in vivo, rat (Male Wistar). The settings on record: 40 minutes after opaque meal, mean of ten ± standard error, controls 81.76 ± 2.33. As to the method:
Male Wistar rats weighing 150-180 g were employed subdivided in groups of ten subjects, which were maintained fasting for 18 hours before the test.
Two administration ways were considered: oral and intraperitoneal.
In the first set of tests to every group of animals each compound was orally administered in the form of an aqueous solution or suspension in gum-arabic (10% in water) 40 minutes before an opaque meal consisting of a suspension of 5% vegetable charcoal in gum-arabic (20% in water).
The animals were killed by cranial injury 40 minutes after the oral administration of the opaque meal and the small intestine was drawn. To the control group an equal volume of saline was administered in the same administration way. The second set of tests was carried out by administering intraperitoneally the compounds 30 minutes before the opaque meal. The animals were killed 40 minutes after the swallowing of the alimentary bolus and the small intestine was drawn; to the control group an equal volume of saline was injected. The total length of small intestine and the progress of opaque meal were measured in each killed animal.

Data set [5] in a line: Acute toxicity (DL50) in mouse. The format is in vivo. As to conditions: mouse, in vivo, average values with fiducial limits, 7 days observation. As to the method:
The determination of the lethal dose to 50% of the animals which were treated with the examined substances was obtained by using male Swiss mice averaging 22 g and by considering two administration ways: oral and intraperitoneal.
Groups of six animals of each dose were prepared which were kept under observation for 7 days and fasting since the evening before the experience.
During the observation period possible and clear changes in activity and behaviour were controlled by using the Irwin test: a behavioural outline of the treated animals was obtained with respect to other subjects which received reference drugs.
The calculation of acute toxicity was carried out by using the Litchfield and Wilcoxon procedure (J. Pharmac. Exp. Ther. 96, 99, 1949).
The acute toxicity values in mg/kg are given in table 9 in the form of average values with the relevant fiducial limits in comparison with papaverine.

The test system of data set [6] is carbachol-stimulated intestinal motility. The experiment in a line: Effect on intestinal progress in rats after excitation with carbachol. The format is in vivo, rat. As to conditions: 40 mg/kg i.p.; carbachol 30 mcg/kg i.p.; mean of ten ± standard errors; non-stimulated controls 55.7 ± 2.23, stimulated controls 77.95 ± 1.72. As for the experimental part:
Subsequently a further series of tests were carried out in order to evaluate the capability of some examined compounds in hindering the stimulating action on intestinal motility of a dose of carbachol at the concentration of 30 mcg/kg when intraperitoneally administered. Carbachol or carbamylcholine chloride is a known substance endowed with parasympathomimetic action.
The control group was given an equal volume of saline.
The survey of the data as given in tables 6 was carried out as previously described by considering the percent intestinal progress of opaque meal with respect to the total length of small intestine.

The subject of data set [7] is effects caused by Tremorin. The experiment in a line: Central and peripheral anticholinergic activity in mouse after administration of Tremorin. On all read-outs here: key: +: Presence of the effect (ptyalism, miosis, tremors); -: Lack of the effect (ptyalism, miosis, tremors). The format is in vivo, mouse (Swiss male). As to conditions: Tremorin 25 mg/kg i.p.; for Tremors: central activity; for Miosis / Ptyalism: peripheral activity. As for the experimental part: (§5) In order to evaluate the possible undesirable collateral systemic effects, tests of central and peripheral anticholinergic activity were carried out by using two animal species, mouse and rat.
In the first series of tests Swiss male mice averaging 25 g were used which were subdivided in three groups of 8 animals. […] The third, control group was given an equal volume of saline.
In watching the effects caused by Tremorin during the development of its action, beside the time for the appearance of tremors as an index of the central activity, further parameters such as ptyalism and miosis were contemplated as indexes of peripheral activity.

Data set [8] relates to acetylcholine-induced chromodacryorrhea. The experiment in a line: Anticholinergic activity on chromodacryorrhea from acetylcholine. Format: in vivo, rat (male Wistar). As to conditions: for Chromodacryorrhea: acetylcholine 160 mcg s.c. As for the experimental part:
as §5
Another series of experiments was carried out on male Wistar rats averaging 150 g in order to point out the anticholinergic activity at the glandular level.
A first control group consisting of six animals was subcutaneously injected with 160 mcg of acetylcholine.

The nature of a further data set: Solubility. The settings on record: saline; read-out: maximum dose consistent with the total solubility in saline. The format is physicochemical.

Where a name gives a salt, the structure may show the parent alone. A value given as a limit tells only on which side of the number the result lay.

For `CC[n+]1cccc(NCCC(c2ccccc2)c2ccccc2)c1` [3-(3',3'-diphenylpropyl-1'-amino)-1-ethylpyridinium iodide], the results for the IC50 in the data set with rabbit ileum [1], in the data set on rabbit ileum [2] and in the data set with guinea pig ileum [3] were 16 µM, 35 µM and 12 µM, respectively.

For `COc1ccc(Cc2nccc3cc(OC)c(OC)cc23)cc1OC` [Papaverine hydrochloride, reference compound], the IC50 came out at 39 µM in the data set on rabbit ileum [1], 56 µM in the data set with rabbit ileum [2], 9.2 µM in the data set with guinea pig ileum [4] and 8.5 µM in the data set with guinea pig ileum [3]. In the data set on small intestine (200 mg/kg os), this compound came in with a Progress % of 70.2 ± 2.61%. The LD50 at 168 h worked out at 66 mg/kg in [5] (ip) and 315 mg/kg in [5] (po, os).

`CC[n+]1ccc(NCCC(c2ccccc2)c2ccccc2)cc1` [4-(3',3'-diphenylpropyl-1'-amino)-1-ethyl-pyridinium iodide]: the IC50 is 24 µM with rabbit ileum [1], 22 µM in the data set on rabbit ileum [2], 8.9 µM in the data set on guinea pig ileum [4] and 10 µM with guinea pig ileum [3].

For `C[n+]1cccc(NCCC(c2ccccc2)c2ccccc2)c1` [3-(3',3'-diphenylpropyl-1'-amino)-1-methylpyridinium iodide], the IC50 was determined as 15 µM in the data set on rabbit ileum [1], 14 µM with rabbit ileum [2] and 17 µM in the data set on guinea pig ileum [3].

`C[n+]1ccccc1NCCC(c1ccccc1)c1ccccc1` [2-(3',3'-diphenylpropyl-1'-amino)-1-methylpyridinium iodide]: the IC50 in the data set on rabbit ileum [1] was determined as 26 µM; in the data set with rabbit ileum [2], 10 µM; in the data set on guinea pig ileum [4], 4.3 µM; with guinea pig ileum [3], 4.6 µM. Besides, in the data set on guinea pig ileum [4], the “BaCl2-induced contraction on guinea pig ileum” value is on record as “more active than papaverine”. Also, in the data set on guinea pig ileum [3], the “acetylcholine-induced contraction on guinea pig ileum” value is “also effective on the acetylcholine-induced contraction”. This compound also came in with a Progress % in the data set with small intestine (100 mg/kg os) of 73.63 ± 4.33%. The same compound came in with an LD50 at 168 h in [5] (po, os) of 350 mg/kg.

Turning to `c1ccc(C(CCNc2cccnc2)c2ccccc2)cc1` [N-(3'-pyridyl)-3,3-diphenylpropylamine hydrochloride], the IC50 in the data set on rabbit ileum [1] is 12 µM; in the data set on rabbit ileum [2], 28 µM; in the data set with guinea pig ileum [4], 6.7 µM; in the data set with guinea pig ileum [3] it was 10 µM. The “BaCl2-induced contraction on guinea pig ileum” value in the data set with guinea pig ileum [4] is listed as “more active than papaverine”. Also, the “acetylcholine-induced contraction on guinea pig ileum” value with guinea pig ileum [3] is listed as “also effective on the acetylcholine-induced contraction”. The Progress % amounted to 75.06 ± 5.94% with small intestine (20 mg/kg i.p.), 79.10 ± 5.3% with small intestine (100 mg/kg os) and 49.85 ± 3.34% in [6]. The Tremors result in data set [7] (50 mg/kg i.p.) and in data set [7] (100 mg/kg i.p.) was “-” in each case. Further, the values for the Miosis result in data set [7] (50 mg/kg i.p.) and in data set [7] (100 mg/kg i.p.) were “+” and “-”, respectively. Also, the results for the Ptyalism result in [7] (50 mg/kg i.p.) and in data set [7] (100 mg/kg i.p.) were “+” and “-”, respectively. In addition, in data set [8] (50 mg/kg i.p.), the Chromodacryorrhea entry is reported as “+”. Besides, in [8] (50 mg/kg, result in words), the “effect on acetylcholine-induced chromodacryorrhea” value is reported as “do not modify the acetylcholine-induced chromodacryorrhea”. For the same compound, the median lethal dose (LD50) at 168 h is 340 mg/kg in data set [5] (ip) and over 800 mg/kg in data set [5] (po, os). Moreover, the solubility in “Solubility” is 1000 µg/mL.

`CC[n+]1ccccc1NCCC(c1ccccc1)c1ccccc1` [2-(3',3'-diphenylpropyl-1'-amino)-1-ethylpyridinium iodide]: the values for the IC50 in the data set with rabbit ileum [1], in the data set on guinea pig ileum [4] and in the data set on guinea pig ileum [3] were 18 µM, 3.4 µM and 6.2 µM, respectively.

As for `C[n+]1ccc(NCCC(c2ccccc2)c2ccccc2)cc1` [4-(3',3'-diphenylpropyl-1'-amino)-1-methyl-pyridinium iodide], the IC50 with rabbit ileum [1] turned out to be 18 µM; in the data set with rabbit ileum [2], 14 µM; in the data set on guinea pig ileum [3], 16 µM.

As for `CN1[C@@H]2CC[C@H]1C[C@@H](OC(=O)C(CO)c1ccccc1)C2` (stereo partly shown) [Atropine sulfate, reference compound], in data set [7] (60 mg/kg i.p.), the Tremors result is “-”, the Miosis entry is listed as “-” and the Ptyalism entry is on record as “-”. Moreover, the Chromodacryorrhea result in [8] (1 mg/kg i.p.) is listed as “-”.
